{"source": "patent US20240050950A1", "about": "“GRADIENT-BASED MICROFLUIDIC CIRCUIT, DEVICE, AND METHOD FOR PERFORMING AN ASSAY” (priority 2020, published 2024)", "key": {"E. coli 541-15 [1]": {"tested_on": "E. coli 541-15", "experiment": "Gold standard broth microdilution test (OD600 growth curves)", "type": "cell-based", "protocol": "Bacteria culture medium, strains, growth, and broth microdilution test. Non-selective Mueller-Hinton (“MET”) culture medium was used for all bacterial culture. In detail, a colony of bacteria pre-cultured on an LB agar plate (Corning, NY) was taken from a freshly streaked plate and suspended into 3 mL of MEI broth, and cultured at 37° C. overnight (˜12 h). The concentration of bacterial suspension was adjusted using a UV-Vis spectrophotometer (NanoDrop, Thermo-Fisher; Wilmington, DE). To do this, the overnight culture medium was diluted by 10-fold serial dilutions in non-selective MEI culture medium to find the appropriate final concentration (1×10^6 CFU/mL) for the antimicrobial susceptibility testing assay.\nThe gold standard broth microdilution test was performed by preparing the antibiotic solutions at their final concentrations from a stock solution of each examined antibiotic. A fresh 200 μL volume of each antibiotic solution (prepared in MEI culture medium) was pipetted into each microwell of a 96 MicroWell plate. […] Standardized growth curve analysis was performed using a Bioscreen C automated plate reader (Growth Curves USA, NJ) by measuring OD600. […]"}, "E. coli LF82": {"tested_on": "E. coli LF82", "experiment": "MVM2 antimicrobial R/S profile, Crohn's disease clinical isolate", "type": "cell-based", "conditions": "MVM2 platform, 0.1-100 μg/mL, FIG. 9F"}, "[2]": {"conditions": "cited from earlier work"}, "E. coli 541-15 [3]": {"tested_on": "E. coli 541-15", "type": "cell-based", "experimental": "To perform a small-molecule-based biological assay in the MVM^2 platform, four main steps to load the reagents are followed. Step-i involves loading a suspension of the biological species (often with a fluorescent chemical indicator) into the MVM^2 platform so that it is uniformly distributed throughout (see FIG. 6C(i) and FIGS. 11A-D for more details; this step mainly takes ˜3-5 min). In step-ii, small-molecule solutions at C0, 0.1 C0, and 0.01 C0 concentrations are loaded into the high, medium, and low positive main-channels, respectively, which diffuse into the corresponding microchambers through the connected side-channels (see FIG. 6C(ii) and FIGS. 12A-D for more details; this step mainly takes as equal as the small-molecule loading time).\nResazurin (5 wt %) was also added to the bacterial suspension to allow monitoring of the bacterial cell metabolism through an irreversible resazurin-resorufin enzymatic reduction reaction (i.e., with increasing bacterial growth, the higher resazurin reduction results in greater fluorescent intensity).\nTo further confirm these findings based on the bacterial cell metabolism obtained from resazurin reduction, the red fluorescent intensities were correlated with the green fluorescence directly associated with the GFP-labeled bacterial growth in the corresponding microchambers (FIG. 9A and FIG. 9B). […] Moreover, the gold standard broth microdilution technique (measuring the bacterial cell density—OD600—vs. the incubation time) was used to validate the MVM^2 microfluidic device functionality (FIG. 9E).\nSimilarly, bacterial cell metabolism and growth using the resazurin reduction assay was probed and changes in the number of GFP-labeled bacteria during the assay was monitored, as shown in FIGS. 29A-B and FIGS. 30A-B, respectively."}, "[4]": {"tested_on": "E. coli, S. aureus, S. uberis, and K. pneumoniae", "experiment": "MVM2 antimicrobial R/S profile, bovine mastitis clinical isolates", "type": "cell-based", "conditions": "MVM2 platform, FIG. 32", "description": "Bovine with mastitis disease was also used to test the MVM^2 platform for deciphering their antimicrobial resistant/susceptibility profile. These antibiotics were chosen to investigate the most common and important antibiotics' mechanisms of action, including the disruption of bacterial cell wall and membrane synthesis, binding to RNA/DNA and interrupting nucleic acid replication, and inhibition of protein synthesis by binding to ribosome. FIG. 32 contains the following information: (i) the type of bacteria and tested antibiotic can be found at the left and right sides, respectively; (ii) each row includes 37 squares, as labeled at the top and have been categorized in 4 different categories—first square representing the microchamber as negative control (labeled with “N”), and every next twelve squares as respectively representing low, medium, and high positive ranges of antibiotic concentrations; (iii) the low, medium, and high ranges are included the concentration ranges of 0.1-1, 1-10, and 10-100 μg/mL; (iv) there are three types of squares: dark red, dark pink or light pink. If bacteria is susceptible to a specific antibiotic (e.g., E. coli/cefuroxime pair, see FIG. 32), below MIC (shown by dark pink color), bacteria can survive and grow causing more resazurin reduction (shown by dark red). At concentrations greater than the MIC, the bacterial growth stopped as shown by light pink color. The dark pink squares also show the microchambers which antimicrobial susceptibility was monitored at different trials. […]."}, "E. coli": {"tested_on": "E. coli", "experiment": "MVM2 antimicrobial R/S profile, bovine mastitis E. coli isolate", "type": "cell-based", "conditions": "MVM2 platform, 0.1-100 μg/mL, FIG. 32", "description": "Bovine with mastitis disease was also used to test the MVM^2 platform for deciphering their antimicrobial resistant/susceptibility profile. These antibiotics were chosen to investigate the most common and important antibiotics' mechanisms of action, including the disruption of bacterial cell wall and membrane synthesis, binding to RNA/DNA and interrupting nucleic acid replication, and inhibition of protein synthesis by binding to ribosome. FIG. 32 contains the following information: (i) the type of bacteria and tested antibiotic can be found at the left and right sides, respectively; (ii) each row includes 37 squares, as labeled at the top and have been categorized in 4 different categories—first square representing the microchamber as negative control (labeled with “N”), and every next twelve squares as respectively representing low, medium, and high positive ranges of antibiotic concentrations; (iii) the low, medium, and high ranges are included the concentration ranges of 0.1-1, 1-10, and 10-100 μg/mL; (iv) there are three types of squares: dark red, dark pink or light pink. […] The dark pink squares also show the microchambers which antimicrobial susceptibility was monitored at different trials. […]"}, "[5]": {"tested_on": "E. coli LF82, E. faecalis 44, and K. pneumoniae 578", "experiment": "MVM2 antimicrobial R/S profile, isolates from ileal mucosa of human patients with Crohn's disease", "type": "cell-based", "conditions": "MVM2 platform, FIG. 9F"}, "[6]": {"conditions": "Table 1, antimicrobial agents/drugs"}, "[7]": {"conditions": "Table 3, antifungal drugs and other molecules"}}, "note": "Where a name gives a salt, the structure may show the parent alone. Read-outs that look alike come from different tables or passages of the source.", "data": [{"molecule": "CC1(C)S[C@@H]2[C@H](NC(=O)[C@H](N)c3ccccc3)C(=O)N2[C@H]1C(=O)O", "note": "[D-(−)-α-Aminobenzylpenicillin]", "values": [{"measurement": "susceptibility/resistance outcome", "setting": "E. coli 541-15 [1]", "result": "resistance"}, {"measurement": "susceptibility/resistance outcome", "setting": "E. coli LF82", "result": "resistance"}, {"measurement": "Molar volume", "setting": "[2]; [6]", "result": "239.3 ± 5.0", "unit": "cm^3"}, {"measurement": "susceptibility/resistance outcome", "setting": "E. coli 541-15 [3]; MVM2 platform, 0.1-100 μg/mL, 4 h", "result": "resistance"}]}, {"molecule": "CCC[C@@H]1C[C@@H](C(=O)N[C@@H]([C@H]2O[C@H](SC)[C@H](O)[C@@H](O)[C@H]2O)[C@@H](C)O)N(C)C1", "note": "[Lincomycin]", "values": [{"measurement": "effectiveness among tested antibiotics", "setting": "[4]", "result": "not effective"}, {"measurement": "Molar volume", "setting": "[2]; [6]", "result": "313.2 ± 5.0", "unit": "cm^3"}, {"measurement": "susceptibility/resistance outcome", "setting": "E. coli", "result": "resistance"}]}, {"molecule": "CCn1cc(C(=O)O)c(=O)c2ccc(C)nc21", "note": "[Nalidixic acid]", "values": [{"measurement": "effectiveness among tested antibiotics", "setting": "[4]", "result": "most effective"}]}, {"molecule": "CC[C@]1(O)C[C@@H]2CN(CCc3c([nH]c4ccccc34)[C@@](C(=O)OC)(c3cc4c(cc3OC)N(C)[C@H]3[C@@](O)(C(=O)OC)[C@H](OC(C)=O)[C@]5(CC)C=CCN6CC[C@]43[C@@H]65)C2)C1", "note": "[Vinblastine Sulfate]", "values": [{"measurement": "Molar volume", "setting": "[2]; Table 2, anticancer drugs", "result": "590.0 ± 5.0", "unit": "cm^3"}]}, {"molecule": "O=C(CCCCCCC(=O)Nc1ccccc1)NO", "note": "[Vorinostat (Zolinza), Vorinostat]", "values": [{"measurement": "Molar volume", "setting": "[2]; Table 2, anticancer drugs", "result": "224.9 ± 3.0", "unit": "cm^3"}]}, {"molecule": "Cc1nccn1CC1CCc2c(c3ccccc3n2C)C1=O", "note": "(stereo not drawn) [Zofran (Ondansetron Hydrochloride), Ondansetron Hydrochloride]", "values": [{"measurement": "Molar volume", "setting": "[2]; Table 2, anticancer drugs", "result": "230.1 ± 7.0", "unit": "cm^3"}]}, {"molecule": "O=C(O)CN(CC(=O)O)Cc1cc2c(cc1O)Oc1cc(O)c(CN(CC(=O)O)CC(=O)O)cc1C21OC(=O)c2ccccc21", "note": "[calcein]", "values": [{"measurement": "Molar volume", "setting": "[2]; fluorescent dyes", "result": "356±5", "unit": "cm^3/mole"}]}, {"molecule": "CO/N=C(\\C(=O)N[C@@H]1C(=O)N2C(C(=O)O)=C(COC(N)=O)CS[C@H]12)c1ccco1", "note": "[cefuroxime]", "values": [{"measurement": "effectiveness among tested antibiotics", "setting": "[4]", "result": "most effective"}, {"measurement": "susceptibility/resistance outcome", "setting": "E. coli", "result": "susceptible"}]}, {"molecule": "O=c1ccc2[n+]([O-])c3ccc(O)cc3oc-2c1", "note": "[resazurin]", "values": [{"measurement": "Molar volume", "setting": "[2]; fluorescent dyes", "result": "145±7", "unit": "cm^3/mole"}]}, {"molecule": "CC1(C)S[C@@H]2[C@H](NC(=O)C(C(=O)O)c3ccccc3)C(=O)N2[C@H]1C(=O)O", "note": "(stereo partly drawn) [α-Carboxybenzylpenicillin]", "values": [{"measurement": "Molar volume", "setting": "[2]; [6]", "result": "246.1 ± 5.0", "unit": "cm^3"}]}, {"molecule": "Aculeacin A", "values": [{"measurement": "Molar volume", "setting": "[2]; [6]", "result": "754.1 ± 5.0", "unit": "cm^3"}]}, {"molecule": "Alemtuzumab", "values": [{"measurement": "Molar volume", "setting": "[2]; Table 2, anticancer drugs", "result": "165.7 ± 7.0", "unit": "cm^3"}]}, {"molecule": "Antimycin", "values": [{"measurement": "Molar volume", "setting": "[2]; [7]", "result": "431.0 ± 5.0", "unit": "cm^3"}]}, {"molecule": "Bleomycin", "values": [{"measurement": "Molar volume", "setting": "[2]; [7]", "result": "887.0 ± 5.0", "unit": "cm^3"}]}, {"molecule": "Cinnamycin", "values": [{"measurement": "Molar volume", "setting": "[2]; [7]", "result": "1281.0 ± 7.0", "unit": "cm^3"}]}, {"molecule": "Colistin", "values": [{"measurement": "Molar volume", "setting": "[2]; [6]", "result": "916.9 ± 5.0", "unit": "cm^3"}]}, {"molecule": "Epoetin Alfa", "values": [{"measurement": "Molar volume", "setting": "[2]; Table 2, anticancer drugs", "result": "665.6 ± 5.0", "unit": "cm^3"}]}, {"molecule": "Fengycin [Fengycin (Plipastatin)]", "values": [{"measurement": "Molar volume", "setting": "[2]; [7]", "result": "1105.9 ± 5.0", "unit": "cm^3"}]}, {"molecule": "Gentamicin", "values": [{"measurement": "MIC", "setting": "E. coli 541-15 [1]; n=5", "result": "3 ± 2", "unit": "µg/mL"}, {"measurement": "effectiveness among tested antibiotics", "setting": "[5]", "result": "most effective"}, {"measurement": "effectiveness among tested antibiotics", "setting": "[4]", "result": "most effective"}, {"measurement": "susceptibility/resistance outcome", "setting": "E. coli LF82", "result": "susceptible"}, {"measurement": "susceptibility/resistance outcome", "setting": "E. coli 541-15 [3]", "result": "susceptible"}, {"measurement": "MIC", "setting": "E. coli 541-15 [3]; MVM2 platform, 4 h at 37° C., n=5", "result": "2.82 ± 0.68", "unit": "µg/mL"}]}, {"molecule": "Gilteritinib Fumarate [Xospata (Gilteritinib Fumarate)]", "values": [{"measurement": "Molar volume", "setting": "[2]; Table 2, anticancer drugs", "result": "444.9 ± 3.0", "unit": "cm^3"}]}, {"molecule": "Ikarugamycin", "values": [{"measurement": "Molar volume", "setting": "[2]; [6]", "result": "390.4 ± 5.0", "unit": "cm^3"}]}, {"molecule": "Ivermectin Bla", "values": [{"measurement": "Molar volume", "setting": "[2]; [6]", "result": "708.3 ± 5.0", "unit": "cm^3"}]}, {"molecule": "Kirromycin [Kirromycin (mocimycin)]", "values": [{"measurement": "Molar volume", "setting": "[2]; [6]", "result": "622.6 ± 3.0", "unit": "cm^3"}]}, {"molecule": "Lactoferricin B (SITCVRRAFALECIRAIAEKKADAV; Lactoferricin-B; UniProt P24627 52-76, looked up, fragment) [Lactoferricin B (metallibure)]", "values": [{"measurement": "Molar volume", "setting": "[2]; [6]", "result": "184.7 ± 3.0", "unit": "cm^3"}]}, {"molecule": "Lysobactin", "values": [{"measurement": "Molar volume", "setting": "[2]; [6]", "result": "895.9 ± 7.0", "unit": "cm^3"}]}, {"molecule": "Magainin I", "values": [{"measurement": "Molar volume", "setting": "[2]; [6]", "result": "1900.4 ± 3.0", "unit": "cm^3"}]}, {"molecule": "Mithramycin A [Mithramycin A (Plicamycin)]", "values": [{"measurement": "Molar volume", "setting": "[2]; [6]", "result": "728.3 ± 5.0", "unit": "cm^3"}]}, {"molecule": "Neomycin", "values": [{"measurement": "Molar volume", "setting": "[2]; [6]", "result": "380.3 ± 5.0", "unit": "cm^3"}]}, {"molecule": "Phleomycin [Phleomycin (UNII:BN3E7WJN9X)]", "values": [{"measurement": "Molar volume", "setting": "[2]; [6]", "result": "724.4 ± 7.0", "unit": "cm^3"}]}, {"molecule": "Polymyxin B", "values": [{"measurement": "Molar volume", "setting": "[2]; [6]", "result": "941.8 ± 5.0", "unit": "cm^3"}]}, {"molecule": "Reveromycin A [Reveromycin A (MFCD00912537)]", "values": [{"measurement": "Molar volume", "setting": "[2]; [6]", "result": "542.2 ± 5.0", "unit": "cm^3"}]}, {"molecule": "gramicidin s", "values": [{"measurement": "Molar volume", "setting": "[2]; [6]", "result": "919.5 ± 5.0", "unit": "cm^3"}]}, {"molecule": "Pegfilgrastim (protein, UniProt P09919 31-207, looked up, N-terminal methionine; PEG) Granulocyte …: TPLGPASSLPQSFLLKCLEQVRKIQGDGAALQEKLVSECATYKLCHPEELVLLGHSLGIPWAPLSSCPSQALQLAGCLSQLHSGLFLYQGLLQALEGISPELGPTLDTLQLDVADFATTIWQQMEELGMAPALQPTQGAMPAFASAFQRRAGGVLVASHLQSFLEVSYRVLRHLAQP", "values": [{"measurement": "Molar volume", "setting": "[2]; Table 2, anticancer drugs", "result": "252.4 ± 3.0", "unit": "cm^3"}]}, {"molecule": "Neocarzinostatin (protein, UniProt P0A3R9 35-147, looked up, enediyne chromophore) Neocarzinostatin: AAPTATVTPSSGLSDGTVVKVAGAGLQAGTAYDVGQCAWVDTGVLACNPADFSSVTADANGSASTSLTVRRSFEGFLFDGTRWGTVDCTTAACQVGLSDAAGNGPEGVAISFN", "values": [{"measurement": "Molar volume", "setting": "[2]; [6]", "result": "434.9 ± 5.0", "unit": "cm^3"}]}]}
